Reference: ChEMBL document CHEMBL1146796, “Design, synthesis and cytotoxic studies on the simplified oxy analog of eleutherobin” (2004)

Legend:
HBL-100 [1] = assay: (§1) Cytotoxic effect against HBL-100 (human breast cancer cell lines) by MTT assay at 10 ug concentration; format: functional, cell-based
HBL-100 [2] = assay: Cytotoxic effect against HBL-100 (human breast cancer cell lines) by MTT assay at 100 ug concentration; format: functional
HBL-100 [3] = assay: as §1; format: functional

For CC1(C)O[C@@H]2[C@H](O1)[C@@H]1OCc3ccccc3C[C@@H](O)[C@H]2O1, the Absorbance (HBL-100 [1]) was 0.153, the Asorbance (HBL-100 [2]) was 0.081 and the Inhibition (HBL-100 [2]) was 63.3%. The Viability (HBL-100 [2]) was 36.69%, the Inhibition (HBL-100 [3]) was 30.62% and the Viability (HBL-100 [3]) was 69.37%.
